Experimental data reported in the NIST ThermoML archive (doi:10.1021/je034041x).
± gives the expanded uncertainty stated by the source.

Assays:
[1] = xn = mol fraction of the nth substance listed; details: Liquid
[2] = Liquid

O=C=O [carbon dioxide] + O
[1]
Details	viscosity [mPa·s]
273.9 K, 670 kPa, x1 = 0.00869	1.855 ± 0.12
274.2 K, 4630 kPa, x1 = 0.00295	2.827 ± 0.18
274.3 K, 670 kPa, x1 = 0.00857	1.851 ± 0.12
274.5 K, 670 kPa, x1 = 0.0085	1.839 ± 0.12
274.6 K, 4610 kPa, x1 = 0.00294	2.951 ± 0.19
274.7 K, 670 kPa, x1 = 0.00844	1.818 ± 0.12
275 K, 670 kPa, x1 = 0.00834	1.794 ± 0.12
275.1 K, 670 kPa, x1 = 0.00831	1.807 ± 0.12
275.3 K, 670 kPa, x1 = 0.00824	1.771 ± 0.12
275.6 K, 690 kPa, x1 = 0.00815	1.739 ± 0.11
275.9 K, 690 kPa, x1 = 0.00805	1.705 ± 0.11
276 K, 690 kPa, x1 = 0.00802	1.694 ± 0.11
276.1 K, 4780 kPa, x1 = 0.00291	2.225 ± 0.14
276.3 K, 4790 kPa, x1 = 0.00291	2.179 ± 0.14
276.4 K, 690 kPa, x1 = 0.00789	1.647 ± 0.11
276.5 K, 4810 kPa, x1 = 0.0029	2.171 ± 0.14
276.7 K, 690 kPa, x1 = 0.00779	1.605 ± 0.11
277.1 K, 690 kPa, x1 = 0.00766	1.604 ± 0.1
277.5 K, 690 kPa, x1 = 0.00754	1.57 ± 0.1
277.7 K, 4850 kPa, x1 = 0.00287	2.078 ± 0.14
278.6 K, 4890 kPa, x1 = 0.00285	1.948 ± 0.13
279.1 K, 710 kPa, x1 = 0.00702	1.438 ± 0.094
279.3 K, 710 kPa, x1 = 0.00695	1.44 ± 0.094
279.6 K, 4910 kPa, x1 = 0.00283	1.848 ± 0.12
281 K, 710 kPa, x1 = 0.00641	1.367 ± 0.089
281 K, 4910 kPa, x1 = 0.0028	1.728 ± 0.11
281.8 K, 769 kPa, x1 = 0.00615	1.225 ± 0.08
282.1 K, 729 kPa, x1 = 0.00605	1.267 ± 0.082
282.1 K, 4920 kPa, x1 = 0.00277	1.539 ± 0.1
282.2 K, 4870 kPa, x1 = 0.00277	1.576 ± 0.1

O [water]
[2]
Details	viscosity [mPa·s]
273.9 K, 670 kPa	1.833 ± 0.12
274.2 K, 4630 kPa	1.802 ± 0.12
274.3 K, 670 kPa	1.827 ± 0.12
274.5 K, 670 kPa	1.808 ± 0.12
274.6 K, 4610 kPa	1.804 ± 0.12
274.7 K, 670 kPa	1.774 ± 0.12
275 K, 670 kPa	1.737 ± 0.12
275.1 K, 670 kPa	1.725 ± 0.11
275.3 K, 670 kPa	1.705 ± 0.11
275.6 K, 690 kPa	1.683 ± 0.11
275.9 K, 101.3 kPa	1.64 ± 0.11
275.9 K, 690 kPa	1.66 ± 0.11
276 K, 690 kPa	1.652 ± 0.11
276.1 K, 101.3 kPa	1.637 ± 0.11
276.1 K, 4780 kPa	1.67 ± 0.11
276.3 K, 101.3 kPa	1.631 ± 0.11
276.3 K, 4790 kPa	1.652 ± 0.11
276.4 K, 690 kPa	1.622 ± 0.11
276.5 K, 4810 kPa	1.634 ± 0.11
276.7 K, 101.3 kPa	1.594 ± 0.11
276.7 K, 690 kPa	1.613 ± 0.11
276.9 K, 101.3 kPa	1.588 ± 0.1
277.1 K, 690 kPa	1.589 ± 0.1
277.2 K, 101.3 kPa	1.555 ± 0.1
277.5 K, 690 kPa	1.558 ± 0.1
277.7 K, 4850 kPa	1.459 ± 0.096
278.3 K, 101.3 kPa	1.491 ± 0.098
278.6 K, 4890 kPa	1.459 ± 0.095
279.1 K, 710 kPa	1.442 ± 0.094
279.3 K, 101.3 kPa	1.437 ± 0.094
279.3 K, 710 kPa	1.428 ± 0.094
279.6 K, 4910 kPa	1.425 ± 0.093
279.9 K, 101.3 kPa	1.405 ± 0.092
281 K, 710 kPa	1.357 ± 0.089
281 K, 4910 kPa	1.375 ± 0.09
281.8 K, 769 kPa	1.329 ± 0.087
282.1 K, 729 kPa	1.319 ± 0.086
282.1 K, 4920 kPa	1.338 ± 0.087
282.2 K, 101.3 kPa	1.286 ± 0.084
282.2 K, 4870 kPa	1.335 ± 0.087
